We go through 5 compounds from patent US7479540B1, “Adipomodulin and related molecules and methods” (priority 2003, dated 2009).

One assay relates to HSL+/+ adipocytes. As to the kind of experiment: Lipolysis (glycerol release) in HSL+/+ adipocytes from wild type mice. The class given is cell-based, mouse. Conditions: for Lipolysis (nmol glycerol produced): HSL +/+, 2 hours; for stimulation of lipolysis, result in words: HSL+/+ adipocytes compared with HSL−/−. The protocol:
(§1) To determine whether adipomodulin acts through the classical HSL pathway, Sample 121 was tested in HSL+/+ and HSL−/− adipocytes derived from wild type and HSL knockout mice (obtained from Dr. Grant Mitchell, Sainte Justine Hospital, Montreal, Quebec, Canada), respectively. […] Lipolysis was measured as glycerol release from an adipocyte suspension. In each experiment, adipocytes were pooled from perigonadal fat of two to four 6-month-old mice of the same gender and genotype. One hundred microliters of adipocyte suspension were incubated for 2 hours in a final volume of […] of Krebs-Ringer-HEPES (30 mM) buffer (pH 7.4) supplemented with 2.5% BSA, 2.5% N6-[R-(−)-1-methyl-2-phenyl] adenosine ([…]), and 1 U/mL adenosine deaminase. In some tubes, the lipolytic beta3-adrenergic agonist CL316,243 ([…]) (Wyeth-Ayerst Research Laboratories, Princeton, N.J.) or cAMP agonist (dibutryl cAMP) were added. After a 2-hour incubation, the reaction was stopped by freezing on dry ice. The mixture was extracted with chloroform to remove triglycerides, and glycerol content was then determined by glycerol assay kit (Roche Diagnostics).

For a further assay, the system named is HSL−/− adipocytes. Kind of assay: Lipolysis (glycerol release) in HSL-/- adipocytes from HSL knockout mice. The assay is classed as cell-based, mouse. Conditions: 2 hours. The protocol:
as §1

The next assay deals with NIH 3T3-L1 adipocytes. Kind of assay: Lipolysis (glycerol) in differentiated NIH 3T3-L1 adipocytes (Example 8). The assay is classed as cell-based, mouse. Conditions: 0.1 mM, 4 hours, 37° C. The protocol: (§2) Stimulation of lipolysis in differentiated 3T3-L1 cells was measured according to the procedure described in Hirsch, A. H. & Rosen, O. M., “Lipolytic stimulation modulates the subcellular distribution of hormone-sensitive lipase in 3T3-L1 cells,” J. Lipid Res., vol. 25, pp. 665-667 (1984), which is incorporated herein in its entirety. The 3T3-L1 preadipocyte cell line (from ATCC) was differentiated by treating confluent monolayers with dexamethasone 0.5 μM, 0.15 μM insulin, and methylisobutylxanthine (IBMX) 0.5 mM. After 48 hours, the cells were fed with fresh medium containing 0.15 μM insulin and maintained in culture for 24 hours. Next, the cells were maintained in insulin-free DMEM containing 10% fetal bovine serum for 4-5 days. On the day of experimentation, the differentiated cells were incubated in serum-free DMEM containing 0.2% fatty acid free BSA and 5 mM glucose and treated with adipomodulin, adipomodulin elution buffer, or IBMX at 37° C. for 4 hours. […] The levels of cAMP in the cytosol and the supernatant were measured by competitive radioimmunoassay. […] After several washing steps, the complexes of radioactive cAMP-antibody are counted in a gamma counter. […]

For a further assay, the system named is cAMP. As to the kind of experiment: cAMP radioimmunoassay in differentiated NIH 3T3-L1 adipocytes. The assay is classed as cell-based, mouse. The protocol: as §2
Assay [1] addresses receptor for adipomodulin on NIH 3T3-L1 adipocytes (mouse). As to the kind of experiment: 125I-ligand binding to 3T3-L1 adipocytes at 4 C, 2 h, competitor: excess unlabeled λ- + k-light chain mix.

Several values for one entry are separate records, joined by “and”; a condition that tells them apart may be missing. Identical values can stand only once.

Consider `C[C@H](Cc1ccc2c(c1)OC(C(=O)[O-])(C(=O)[O-])O2)NC[C@H](O)c1cccc(Cl)c1.[Na+].[Na+]` [CL316, 243], for which the results for the “Lipolysis (nmol glycerol produced)” value in the assay on HSL+/+ adipocytes (10 uM) and in the assay on HSL−/− adipocytes (10 uM) were 6.2 ± 1.1 nmol glycerol produced and 1.1 ± 0.3 nmol glycerol produced, respectively.
As to `CC(C)Cn1c(=O)n(C)c(=O)c2[nH]cnc21` [IBMX, methylisobutylxanthine], the Lipolysis in the assay with NIH 3T3-L1 adipocytes is recorded as 3400 ± 50 pmol glycerol/well. The compound also gave a cAMP in the assay with cAMP (0.1 mM, 4 hours, 37° C.) of 69 ± 4 fmol/well. Besides, in the assay on cAMP (versus medium control and elution buffer controls), the “effect on cAMP, result in words” value is reported as “significant stimulation of cAMP”.
adipomodulin (Sample 122): the Binding, CPM/well in assay [1] was 3230 CPM/well and 3840 CPM/well.
Turning to `CCCC(=O)Nc1ncnc2c1ncn2[C@@H]1O[C@@H]2COP(=O)(O)O[C@H]2[C@H]1OC(=O)CCC` [Dibutryl cAMP, dibutryl cAMP], the “Lipolysis (nmol glycerol produced)” value was found to be 7.6 ± 1.0 nmol glycerol produced in the assay with HSL+/+ adipocytes (1 mM) and 1.1 ± 0.1 nmol glycerol produced with HSL−/− adipocytes (1 mM). Also, in the assay with HSL+/+ adipocytes, the “stimulation of lipolysis, result in words” value is “stimulated lipolysis most dramatically in HSL+/+ adipocytes”.
As to `CC(C)NCC(O)c1ccc(O)c(O)c1` (stereo not drawn) [Isoproterenol, isoproterenol], the “Lipolysis (nmol glycerol produced)” value in the assay on HSL+/+ adipocytes (10 uM) amounted to 5.8 ± 1.0 nmol glycerol produced; in the assay with HSL−/− adipocytes (10 uM) it was 0.9 ± 0.2 nmol glycerol produced. In addition, the “stimulation of lipolysis, result in words” value in the assay with HSL+/+ adipocytes is “stimulated lipolysis most dramatically in HSL+/+ adipocytes”.
